The test system of the assay is M1 macrophages and M2 macrophages differentiated from mouse bone marrow cells. Nature of the assay: Subtype identification by staining and flow cytometry of M1 and M2 macrophages differentiated from mouse bone marrow cells. The assay is classed as cell-based, Balb/c mouse. Put shortly: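 Balb/c mouse bone marrow cells were differentiated to macrophages with 50 ng/mL M-CSF over two 3–4-day periods, then polarized for 3 days to M1 (interferon-γ plus polyliposaccharide) or M2 (IL-4). Live cells (aqua dye-negative) were analysed by flow cytometry; resolution R = |FM1−FM2|/(WM1+WM2) from histogram peak positions and widths indexed subtype discrimination.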
For orientation: Flow cytometry measures light scatter and fluorescence of single cells or particles in a stream.

Where [1] appears, read: R=|FM1−FM2|/(WM1+WM2), compound 1 μM.
[2] abbreviates: fluorescence intensity at peak top of histogram, compound 1 μM, 37° C., 30 minutes.
[3] abbreviates: M1 vs M2 macrophages from mouse bone marrow cells, general formula (10) dyes (Table 8).
[4] abbreviates: class based on resolution R, general formula (10) dyes (Table 8).
Where [5] appears, read: mouse bone marrow-derived M1 macrophages, channel listed per compound, general formula (10) dyes (Table 8).
The mark [6] stands for this setting: mouse bone marrow-derived M2 macrophages, channel listed per compound, general formula (10) dyes (Table 8).

Regarding `O=C(O)CN1C(=O)/C(=C\c2ccc3c(c2)C2CCCC2N3Cc2ccccc2)SC1=S` (stereo not drawn) [(28)], the “Resolution ratio R” value under setting [1] came out at 0.431. In addition, under setting [2], the “Peak position of M1 macrophage” value is listed as 9.54 and the “Peak position of M2 macrophage” value was determined as 15.8. The “Evaluation of macrophage subtype identification” value (“Evaluation” below) (rated from resolution R) was “B (the compound is good in the subtype identification (namely, the resolution R is 0.15 or more and less than 0.5))”.

Take `O=C(O)CCN1C(=O)/C(=C\c2cc(Br)c3c(c2)C2CCCC2N3c2ccc(Br)cc2)SC1=S` (stereo not drawn) [(11)]: the “Resolution ratio R” value under setting [1] is recorded as 0.544. Also, under setting [2], the “Peak position of M1 macrophage” value was 30.5 and the “Peak position of M2 macrophage” value was 16.2. The “Evaluation” value (rated from resolution R) is listed as “A (The compound is very good in the subtype identification (namely, the resolution R is 0.5 or more))”.

For the compound `CCN(CC)c1ccc2cc(-c3nc4ncccc4o3)c(=O)oc2c1` [compound (116)], under setting [3], the “Resolution ratio R” value is 0.772. Moreover, under setting [4], the “Evaluation” value is “A (The compound is very good in the subtype identification (namely, the resolution R is 0.5 or more))”. Besides, under setting [5], the “Peak position of M1 macrophage” value worked out at 4.91. For the same compound, the “Peak position of M2 macrophage” value under setting [6] is given as 12.1. Moreover, under “two compounds used in combination, each 1 μM”, the “subtype more strongly stained” value was “more strongly stain the M2 macrophages than the M1 macrophages”.

Regarding `O=C(O)Cn1c(=O)/c(=C\c2ccc3c(c2)C2CCCC2N3c2ccc(C=C(c3ccccc3)c3ccccc3)cc2)s/c1=C1/CC(=S)N(Cc2ccccc2)C1=O` (stereo not drawn) [(20)], under setting [1], the “Resolution ratio R” value amounted to 0.290. In addition, under setting [2], the “Peak position of M1 macrophage” value is listed as 4.47 and the “Peak position of M2 macrophage” value is recorded as 2.10. The “Evaluation” value (rated from resolution R) is “B (the compound is good in the subtype identification (namely, the resolution R is 0.15 or more and less than 0.5))”.

Regarding `CCN(CC)c1ccc2cc(-c3nc4cc(Cl)ccc4s3)c(=O)oc2c1` [(122)], the “Resolution ratio R” value under setting [3] stood at 0.377. In addition, the “Evaluation” value under setting [4] was “B (the compound is good in the subtype identification (namely, the resolution R is 0.15 or more and less than 0.5))”. Further, under setting [5], the “Peak position of M1 macrophage” value was determined as 142. Besides, the “Peak position of M2 macrophage” value under setting [6] came to 211.

Consider `CCOC(=O)Cn1c(=O)/c(=C\c2ccc3c(c2)C2CCCC2N3Cc2ccccc2)s/c1=C1/SC(=S)N(CC)C1=O` (stereo not drawn) [(55)], for which, under setting [1], the “Resolution ratio R” value was 0.206. Also, under setting [2], the “Peak position of M1 macrophage” value is reported as 2.34 and the “Peak position of M2 macrophage” value came to 1.86. For the same compound, the “Evaluation” value (rated from resolution R) is “B (the compound is good in the subtype identification (namely, the resolution R is 0.15 or more and less than 0.5))”.

On to `CCOC(=O)Cn1c(=O)/c(=C\c2ccc3c(c2)C2CCCC2N3Cc2ccccc2)s/c1=C1/SC(=O)N(CC)C1=O` (stereo not drawn) [(42)], for which the “Resolution ratio R” value under setting [1] stood at 0.616. Further, under setting [2], the “Peak position of M1 macrophage” value is listed as 4.19 and the “Peak position of M2 macrophage” value worked out at 1.79. The “Evaluation” value (rated from resolution R) was “A (The compound is very good in the subtype identification (namely, the resolution R is 0.5 or more))”.

`CCN1c2ccc(/C=C/C=C3/SC(=S)N(CCC(=O)O)C3=O)cc2C2CCCC21` (stereo not drawn) [(76)]: the “Resolution ratio R” value under setting [1] was found to be 0.283. Further, under setting [2], the “Peak position of M1 macrophage” value is recorded as 7.77 and the “Peak position of M2 macrophage” value was found to be 10.5. The “Evaluation” value (rated from resolution R) was “B (the compound is good in the subtype identification (namely, the resolution R is 0.15 or more and less than 0.5))”.

The values above are taken from patent US10041937B2, “Macrophage identification agent, and identification method, sorting method, evaluation method, screening method and kit using the macrophage identifier agent” (CANON KABUSHIKI KAISHA, priority 2013, dated 2018).
